Tests used:
JNK1 = biological target: T1, JNK1 (Homo sapiens, UniProt P45983); experiment: tryptophan fluorescence quenching titration with purified protein; format: binding
T1 construct: gene MAPK8; C-terminal truncated form of human JNK1α1 (residues 1–364), C-terminal 6His tag

[1] = biological target: T2, P. acnes β-ketoacyl acyl carrier protein (ACP) synthase III (KAS III) (Cutibacterium acnes, UniProt P0DW99); format: biochemical
T2 construct: gene fabH; wild-type P. acnes KAS III
T2 sequence (P0DW99 1-332): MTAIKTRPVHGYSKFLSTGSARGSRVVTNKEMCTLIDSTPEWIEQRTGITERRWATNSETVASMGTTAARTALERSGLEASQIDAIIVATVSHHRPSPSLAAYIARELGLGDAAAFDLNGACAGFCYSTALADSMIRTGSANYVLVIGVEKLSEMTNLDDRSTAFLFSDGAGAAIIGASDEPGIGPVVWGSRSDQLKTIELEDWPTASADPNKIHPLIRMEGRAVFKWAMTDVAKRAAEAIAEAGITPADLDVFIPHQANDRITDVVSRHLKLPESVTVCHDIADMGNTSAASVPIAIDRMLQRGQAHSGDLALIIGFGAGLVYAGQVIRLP

T1 sequence (P45983 1-364): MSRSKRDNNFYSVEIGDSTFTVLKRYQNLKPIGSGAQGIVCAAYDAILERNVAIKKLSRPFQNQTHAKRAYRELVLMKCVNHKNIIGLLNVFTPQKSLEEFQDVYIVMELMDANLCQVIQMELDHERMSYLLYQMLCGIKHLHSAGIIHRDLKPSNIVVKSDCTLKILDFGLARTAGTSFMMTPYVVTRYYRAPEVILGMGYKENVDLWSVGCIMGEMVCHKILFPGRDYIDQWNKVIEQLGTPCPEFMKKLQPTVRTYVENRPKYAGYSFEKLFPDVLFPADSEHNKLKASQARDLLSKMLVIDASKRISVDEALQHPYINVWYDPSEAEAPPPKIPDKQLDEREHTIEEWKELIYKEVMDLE

Question: Which results are given for O=C(CCc1ccc(O)cc1)c1c(O)cc(O)cc1O [Phloretin, 3-(4-hydroxyphenyl)-1-(2,4,6-trihydroxyphenyl)-1-propanone]?
Answer: Kd (JNK1): 11.8 µM; % reduction of product [1]: > 66 % reduction of product

Reference: article PMC6479541, “Target Proteins of Phloretin for Its Anti-Inflammatory and Antibacterial Activities Against Propionibacterium acnes-Induced Skin Infection” (Molecules, 2019)
